{"source": "patent US7371776B2", "about": "“Methods and compositions for treating cancer” (Mars, Incorporated, priority 2004, dated 2008)", "format_in_all_cases": "cell-based, human", "key": {"MCF-7 cells": {"test_system": "MCF-7 cells", "test": "Crystal violet cellular proliferation assay", "details": "MCF-7 (wild type p53, ER-positive); 100 μg/mL", "description": "(§1) Human breast cancer cell lines MDA MB-231, MDA MB-436, MD MB-468, SKBR-3 and MCF-7 were obtained from the Lombardi Comprehensive Cancer Center (LCC) Tissue Culture Shared Resource. MDA MB-231, MDA MB-436, MD MB-468 and SKBR-3 are p53-mutated estrogen receptor (ER)-negative cells. MDA MB-231 also contains a mutation in the K-ras oncogene. The MCF-7 cell line is ER-positive and non-mutated for p53. The cells were grown in complete media containing DMEM (Gibco-BRL, Gaithersburg, Md.) supplemented with 10% fetal bovine serum (FBS) (Quality Biological, Gaithersburg, Md.). In addition, media for MCF-7 contained non essential amino acids (Gibco-BRL, Gaithersburg, Md.).\n(§2) One×10^3 cells per well were seeded in 96 well dishes (Coming Costar, Cambridge, Mass.). Primary cultures of HMECs, A1N4 and 184B5 cells were evaluated at two different cell densities (seeded at 1×10^3 and 2×10^3 per well). After 24 hours of cell attachment, cells in triplicate wells were treated with pentamer at a concentration of 100 μg/mL. The cells on the same plate were treated with corresponding controls: (i) media containing DMSO, and (ii) media with no additions.\n(§3) Cells were treated for 1, 2, 3, 6, 8 and 10 days, but in some cases, the samples were collected at days 2, 3, 4, 7 and 10 post-treatment. Each treatment was conducted in triplicate. Samples were collected at each time point as follows: media was removed and 50 μL of crystal violet solution (0.1% of crystal violet in 0.1 M citric acid solution) was added to each well at room temperature and plates were incubated for 15 minutes, followed by washing with deionized water. Plates were dried at room temperature overnight. The following day, plates were destained by adding 100 μL of 0.1 M sodium citrate solution into each well. Plates were incubated for one hour. The optical density (OD) of samples was read at 550 nm on an Ultramark Microplate Imagining System (BioRad, Philadelphia, Pa.). The experiment was repeated twice resulting in an average of nine measurements per sample. Statistical significance was determined using the t test analysis."}, "SKBR-3 cells": {"test_system": "SKBR-3 cells", "test": "Crystal violet cellular proliferation assay", "details": "100 μg/mL, ten days after treatment", "description": "as §1, §2, §3"}, "MDA MB-436 cells": {"test_system": "MDA MB-436 cells", "test": "Crystal violet cellular proliferation assay", "details": "100 μg/mL, ten days after treatment", "description": "as §1, §2, §3"}, "MDA MB-468 cells": {"test_system": "MDA MB-468 cells", "test": "Crystal violet cellular proliferation assay", "details": "100 μg/mL, ten days after treatment", "description": "as §1, §2, §3"}, "MDA MB-231 cells": {"test_system": "MDA MB-231 cells", "test": "Crystal violet cellular proliferation assay", "details": "100 μg/mL, ten days after treatment", "description": "as §1, §2, §3"}, "pRb": {"test_system": "pRb", "test": "High resolution profiling (P-FILM) of pRb in MDA MB-231 cells", "details": "100 μg/mL, 48 and 72 hours", "description": "Both p53 and pRb contain multiple phosphorylation sites, and evaluating each site separately provides a more accurate indication of each protein's potential function. Therefore, a high resolution functional profiling of the proteins was performed using P-FILM technology (20/20 Gene Systems, Inc.).\nThe same protein samples as those used for PDVF membrane blotting were used. Ten μg of each protein sample of MDA MB-231 cells, and in some cases MDA MB-468 and MCF-7 cells, treated with 100 μg /mL of pentamer or DMSO-treated controls, were separated by PAGE on 4-20% gradient gels (BioRad). Proteins were transferred on a stack of ten membranes, according to manufacturer's instructions (20/20 Gene Systems, Inc.). The membranes were probed with antibodies recognizing total and phosphorylated p53 (p53Ser6, Ser9, Ser15, Ser20, Ser37, Ser46 and Ser392) at 1:1000 dilution as recommended by the manufacturer (Cell Signaling). The secondary antibody used in all cases was anti-rabbit polyclonal 1:2000 (Amersham). Signals were visualized on BIOMAX MR film (Kodak). The profiling of pRb was done using anti-phospho pRb (Ser780, Ser 795 and Ser 807/811) and anti-pRb polyclonal antibody (Cell Signaling) at a 1:1000 dilution. The secondary antibody used in all cases was anti-rabbit at 1:2000 dilution (Amersham). Image analysis was performed with Kodak 1D image analysis software. […]"}, "184B5 cells": {"test_system": "184B5 cells", "test": "Crystal violet cellular proliferation assay", "details": "100 μg/mL", "description": "The 184B5 line is an immortalized, non-tumorogenic cell line derived from primary cultures of HMECs immortalized with benzo(a)pyrene (provided by Dr. M. R. Stampfer) and was maintained in Clonetics mammary epithelial cells medium (MEGM).\nas §2\nas §3, with “Plates were dried at room temperature overnight. The following day, plates were destained by adding 100 μL of 0.1 M sodium citrate solution into each well. Plates were incubated for one hour.” left out, “The experiment was repeated twice resulting in an average of nine measurements per sample.” left out"}, "AIN4 cells": {"test_system": "AIN4 cells", "test": "Crystal violet cellular proliferation assay", "details": "100 μg/mL", "description": "The 184A1N4 cell line (hereinafter “A1N4”) is a non-tumorigenic cell line derived from primary cultures of HMECs and immortalized with benzo(a)pyrene (provided by Dr. M. R. Stampfer, University of California, Berkley, Calif.) (Stampfer, M. R. et al., Proc. Natl. Acad. Sci. USA, 82: 2394-2398, 1985). These cells were maintained in IMEM medium with 0.5% FBS, 0.5 μg/mL of hydrocortisone (Biofluids), 5 μg/mL insulin and 10 ng/mL of EGF.\nas §2\nCells were treated for 1, 2, 3, 6, 8 and 10 days, but in some cases, the samples were collected at days 2, 3, 4, 7 and 10 post-treatment. Each treatment was conducted in triplicate. […] The optical density (OD) of samples was read at 550 nm on an Ultramark Microplate Imagining System (BioRad, Philadelphia, Pa.). […] Statistical significance was determined using the t test analysis."}, "MCF-10A cells": {"test_system": "MCF-10A cells", "test": "Crystal violet cellular proliferation assay", "details": "100 μg/mL", "description": "(§4) The MCF-10A cell line (spontaneously immortalized, non-tumorigenic human mammary epithelial cell line with non-mutated p53) was maintained in F-12/DMEM medium supplemented with 5% horse serum (Gibco), 20 ng/mL EGF (Upstate Biotechnology Incorporated, Lake Placid, N.Y.), 10 μg/mL insulin (Biofluids, Rockville, Md.), and 500 ng/mL hydrocortisone. The same media were used for MCF-10A-ErbB2/Ras cells (Ciardiello, F. et al., Mol Carcinog., 6: 43-52. 1992) and MCF-10A-c-Myc cells (Sheen, J-H. et al., Mol. Cell. Biol., 22: 1819-1833, 2002).\nas §2, §3"}, "MCF-10A-c-Myc cells": {"test_system": "MCF-10A-c-Myc cells", "test": "Crystal violet cellular proliferation assay", "details": "100 μg/mL", "description": "as §4, §2, §3"}, "MCF-10A-ErbB2/Ras cells": {"test_system": "MCF-10A-ErbB2/Ras cells", "test": "Crystal violet cellular proliferation assay", "details": "100 μg/mL", "description": "as §4, §2, §3"}}}
{"compound": "Oc1cc(O)c2c(c1)O[C@H](c1ccc(O)c(O)c1)[C@H](O)[C@H]2c1c(O)cc(O)c2c1O[C@H](c1ccc(O)c(O)c1)[C@H](O)[C@H]2c1c(O)cc(O)c2c1O[C@H](c1ccc(O)c(O)c1)[C@H](O)[C@H]2c1c(O)cc(O)c2c1O[C@H](c1ccc(O)c(O)c1)[C@H](O)[C@H]2c1c(O)cc(O)c2c1O[C@H](c1ccc(O)c(O)c1)[C@H](O)C2", "note": "[pentamer, pentameric procyanidin]", "values": [{"measurement": "growth inhibition", "setting": "MCF-7 cells", "value": 5.6, "unit": "fold"}, {"measurement": "growth inhibited, in comparison to DMSO-treated controls", "setting": "SKBR-3 cells", "value": 5.5, "unit": "fold"}, {"measurement": "growth inhibited, in comparison to DMSO-treated controls", "setting": "MDA MB-436 cells", "value": 4.1, "unit": "fold"}, {"measurement": "growth inhibited, in comparison to DMSO-treated controls", "setting": "MDA MB-468 cells", "value": 4, "unit": "fold"}, {"measurement": "growth inhibited, in comparison to DMSO-treated controls", "setting": "MDA MB-231 cells", "value": 5, "unit": "fold"}, {"measurement": "phosphorylation of pRb on all tested residues (Ser780, Ser795 and Ser807/811)", "setting": "pRb", "value": "decrease"}, {"measurement": "protein expression of endogenous pRb", "setting": "pRb", "value": "decrease"}, {"measurement": "day post-treatment at which significant sensitivity to pentamer was exhibited", "setting": "184B5 cells", "value": 10, "unit": "days"}, {"measurement": "growth inhibited, in comparison to DMSO-treated controls", "setting": "184B5 cells", "value": 2.8, "unit": "fold"}, {"measurement": "growth inhibited, in comparison to DMSO-treated controls", "setting": "AIN4 cells", "value": 7.3, "unit": "fold"}, {"measurement": "pentamer-induced growth inhibition", "setting": "MCF-10A cells", "value": "equally resistant"}, {"measurement": "pentamer-induced growth inhibition", "setting": "MCF-10A-c-Myc cells", "value": "equally resistant"}, {"measurement": "pentamer-induced growth inhibition", "setting": "MCF-10A-ErbB2/Ras cells", "value": "equally resistant"}]}
